Literature values, collected in US20130171093A1, “HEALING POWDER AND METHOD OF USE THEREOF” (priority 2006, published 2013).

How the values were obtained:
[1] = tested on: full thickness wounds in the backs of pigs; settings: clean, non-infected pig wounds under Opsite
[2] = tested on: acute mediastinitis wounds; settings: 19 patients, wounds packed every 3 to 4 hours

N=C(NCCCCCCNC(=N)NC(=N)Nc1ccc(Cl)cc1)NC(=N)Nc1ccc(Cl)cc1.O=C(O)[C@H](O)[C@@H](O)[C@H](O)[C@H](O)CO.O=C(O)[C@H](O)[C@@H](O)[C@H](O)[C@H](O)CO [chlorhexidine gluconate 0.2%, chlorhexidine gluconate]
wound healing / granulation tissue formation versus wounds covered with Opsite alone [1]: delayed healing

OC[C@H]1O[C@@](CO)(O[C@H]2O[C@H](CO)[C@@H](O)[C@H](O)[C@H]2O)[C@@H](O)[C@@H]1O [granular sugar, sucrose]
debridement of the wound [2]: near complete debridement | eradication of bacterial infection, average time of treatment [2]: 7.6 days
